In paper PMC6199744, “Development of Chemical Proteomics for the Folateome and Analysis of the Kinetoplastid Folateome” (ACS Infectious Diseases, 2018):
Where two headings read alike, the source gives them in different places.

Experiments:
Assay type in all cases: binding
[1] = target: T1, HeLa cell extract proteins (Homo sapiens, UniProt Q16831)
T1 construct: endogenous in cells; host or cells: HeLa cell extract

[2] = target: T2, HeLa cell extract proteins (Homo sapiens, UniProt O75340)
T2 construct: endogenous in cells; host or cells: HeLa cell extract

[3] = target: T3, HeLa cell extract proteins (Homo sapiens, UniProt P50502)
T3 construct: endogenous in cells; host or cells: HeLa cell extract
T3 sequence (P50502 1-369): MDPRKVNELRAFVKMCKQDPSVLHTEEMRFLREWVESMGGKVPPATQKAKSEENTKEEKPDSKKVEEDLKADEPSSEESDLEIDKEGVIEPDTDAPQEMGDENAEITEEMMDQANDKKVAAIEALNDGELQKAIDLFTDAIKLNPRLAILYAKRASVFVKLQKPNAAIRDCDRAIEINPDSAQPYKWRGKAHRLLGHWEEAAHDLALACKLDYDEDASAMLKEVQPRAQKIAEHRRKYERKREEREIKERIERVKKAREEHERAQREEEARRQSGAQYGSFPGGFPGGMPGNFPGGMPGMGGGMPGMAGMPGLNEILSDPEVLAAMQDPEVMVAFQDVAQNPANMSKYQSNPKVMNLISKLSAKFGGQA

[4] = target: T4, HeLa cell extract proteins (Homo sapiens, UniProt Q99623)
T4 construct: endogenous in cells; host or cells: HeLa cell extract

[5] = target: T5, HeLa cell extract proteins (Homo sapiens, UniProt P12270)
T5 construct: endogenous in cells; host or cells: HeLa cell extract

[6] = target: T6, HeLa cell extract proteins (Homo sapiens, UniProt P30084)
T6 construct: endogenous in cells; host or cells: HeLa cell extract
T6 sequence (P30084 28-290): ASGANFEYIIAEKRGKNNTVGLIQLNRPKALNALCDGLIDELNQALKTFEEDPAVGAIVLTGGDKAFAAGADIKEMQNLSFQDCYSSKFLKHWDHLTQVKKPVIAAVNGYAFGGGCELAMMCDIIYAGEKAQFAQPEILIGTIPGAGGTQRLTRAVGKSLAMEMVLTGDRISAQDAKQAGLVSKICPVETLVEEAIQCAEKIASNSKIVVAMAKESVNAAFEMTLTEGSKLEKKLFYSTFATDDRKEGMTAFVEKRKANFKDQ

[7] = target: T7, HeLa cell extract proteins (Homo sapiens, UniProt O95382)
T7 construct: endogenous in cells; host or cells: HeLa cell extract
T7 sequence (O95382 1-1288): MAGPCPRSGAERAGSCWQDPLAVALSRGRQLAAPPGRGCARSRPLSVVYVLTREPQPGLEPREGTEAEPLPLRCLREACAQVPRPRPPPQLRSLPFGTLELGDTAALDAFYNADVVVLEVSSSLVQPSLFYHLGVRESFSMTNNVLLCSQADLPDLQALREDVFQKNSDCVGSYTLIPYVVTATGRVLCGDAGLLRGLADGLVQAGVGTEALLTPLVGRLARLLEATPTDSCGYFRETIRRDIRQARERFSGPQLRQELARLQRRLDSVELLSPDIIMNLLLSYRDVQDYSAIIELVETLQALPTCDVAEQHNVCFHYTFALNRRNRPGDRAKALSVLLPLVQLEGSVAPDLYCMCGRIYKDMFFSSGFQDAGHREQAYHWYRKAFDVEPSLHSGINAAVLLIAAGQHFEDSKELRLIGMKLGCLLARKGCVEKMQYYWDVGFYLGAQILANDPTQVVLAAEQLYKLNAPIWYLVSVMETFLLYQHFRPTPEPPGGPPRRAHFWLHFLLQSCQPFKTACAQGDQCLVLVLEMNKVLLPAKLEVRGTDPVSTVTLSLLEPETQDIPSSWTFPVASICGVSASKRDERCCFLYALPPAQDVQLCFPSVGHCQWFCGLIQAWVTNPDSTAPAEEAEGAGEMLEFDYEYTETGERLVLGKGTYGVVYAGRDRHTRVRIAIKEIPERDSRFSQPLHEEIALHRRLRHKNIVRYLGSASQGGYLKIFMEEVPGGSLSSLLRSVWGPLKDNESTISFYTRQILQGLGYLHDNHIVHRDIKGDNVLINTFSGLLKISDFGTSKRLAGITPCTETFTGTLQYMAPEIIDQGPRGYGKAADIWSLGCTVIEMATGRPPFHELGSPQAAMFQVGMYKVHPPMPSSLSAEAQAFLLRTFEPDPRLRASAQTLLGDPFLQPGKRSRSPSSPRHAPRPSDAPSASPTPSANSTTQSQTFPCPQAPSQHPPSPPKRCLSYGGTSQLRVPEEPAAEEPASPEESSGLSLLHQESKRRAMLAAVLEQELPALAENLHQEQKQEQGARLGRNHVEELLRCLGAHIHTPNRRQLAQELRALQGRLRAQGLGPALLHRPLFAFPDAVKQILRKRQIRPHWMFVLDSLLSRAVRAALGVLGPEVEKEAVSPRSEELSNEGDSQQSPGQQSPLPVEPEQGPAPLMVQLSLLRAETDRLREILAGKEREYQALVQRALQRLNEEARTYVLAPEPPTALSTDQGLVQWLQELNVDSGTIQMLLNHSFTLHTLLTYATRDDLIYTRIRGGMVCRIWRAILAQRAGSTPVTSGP

[8] = target: T8, HeLa cell extract proteins (Homo sapiens, UniProt P40926)
T8 construct: endogenous in cells; host or cells: HeLa cell extract
T8 sequence (P40926 25-338): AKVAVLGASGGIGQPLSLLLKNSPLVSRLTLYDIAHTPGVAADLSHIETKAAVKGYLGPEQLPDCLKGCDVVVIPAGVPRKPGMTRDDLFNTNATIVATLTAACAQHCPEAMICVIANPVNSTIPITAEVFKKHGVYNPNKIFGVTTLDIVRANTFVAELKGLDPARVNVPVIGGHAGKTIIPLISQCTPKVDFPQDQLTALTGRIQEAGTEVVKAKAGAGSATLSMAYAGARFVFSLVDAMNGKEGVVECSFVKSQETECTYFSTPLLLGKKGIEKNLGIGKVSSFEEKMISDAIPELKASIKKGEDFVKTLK

[9] = HeLa, protein UPP1 (ISOFORM 1 OF URIDINE PHOSPHORYLASE 1)
[10] = HeLa, protein PDCD6 (PROGRAMMED CELL DEATH PROTEIN 6)
[11] = HeLa, protein ST13 (HSC70-INTERACTING PROTEIN.)

T5 sequence (P12270 whole entry): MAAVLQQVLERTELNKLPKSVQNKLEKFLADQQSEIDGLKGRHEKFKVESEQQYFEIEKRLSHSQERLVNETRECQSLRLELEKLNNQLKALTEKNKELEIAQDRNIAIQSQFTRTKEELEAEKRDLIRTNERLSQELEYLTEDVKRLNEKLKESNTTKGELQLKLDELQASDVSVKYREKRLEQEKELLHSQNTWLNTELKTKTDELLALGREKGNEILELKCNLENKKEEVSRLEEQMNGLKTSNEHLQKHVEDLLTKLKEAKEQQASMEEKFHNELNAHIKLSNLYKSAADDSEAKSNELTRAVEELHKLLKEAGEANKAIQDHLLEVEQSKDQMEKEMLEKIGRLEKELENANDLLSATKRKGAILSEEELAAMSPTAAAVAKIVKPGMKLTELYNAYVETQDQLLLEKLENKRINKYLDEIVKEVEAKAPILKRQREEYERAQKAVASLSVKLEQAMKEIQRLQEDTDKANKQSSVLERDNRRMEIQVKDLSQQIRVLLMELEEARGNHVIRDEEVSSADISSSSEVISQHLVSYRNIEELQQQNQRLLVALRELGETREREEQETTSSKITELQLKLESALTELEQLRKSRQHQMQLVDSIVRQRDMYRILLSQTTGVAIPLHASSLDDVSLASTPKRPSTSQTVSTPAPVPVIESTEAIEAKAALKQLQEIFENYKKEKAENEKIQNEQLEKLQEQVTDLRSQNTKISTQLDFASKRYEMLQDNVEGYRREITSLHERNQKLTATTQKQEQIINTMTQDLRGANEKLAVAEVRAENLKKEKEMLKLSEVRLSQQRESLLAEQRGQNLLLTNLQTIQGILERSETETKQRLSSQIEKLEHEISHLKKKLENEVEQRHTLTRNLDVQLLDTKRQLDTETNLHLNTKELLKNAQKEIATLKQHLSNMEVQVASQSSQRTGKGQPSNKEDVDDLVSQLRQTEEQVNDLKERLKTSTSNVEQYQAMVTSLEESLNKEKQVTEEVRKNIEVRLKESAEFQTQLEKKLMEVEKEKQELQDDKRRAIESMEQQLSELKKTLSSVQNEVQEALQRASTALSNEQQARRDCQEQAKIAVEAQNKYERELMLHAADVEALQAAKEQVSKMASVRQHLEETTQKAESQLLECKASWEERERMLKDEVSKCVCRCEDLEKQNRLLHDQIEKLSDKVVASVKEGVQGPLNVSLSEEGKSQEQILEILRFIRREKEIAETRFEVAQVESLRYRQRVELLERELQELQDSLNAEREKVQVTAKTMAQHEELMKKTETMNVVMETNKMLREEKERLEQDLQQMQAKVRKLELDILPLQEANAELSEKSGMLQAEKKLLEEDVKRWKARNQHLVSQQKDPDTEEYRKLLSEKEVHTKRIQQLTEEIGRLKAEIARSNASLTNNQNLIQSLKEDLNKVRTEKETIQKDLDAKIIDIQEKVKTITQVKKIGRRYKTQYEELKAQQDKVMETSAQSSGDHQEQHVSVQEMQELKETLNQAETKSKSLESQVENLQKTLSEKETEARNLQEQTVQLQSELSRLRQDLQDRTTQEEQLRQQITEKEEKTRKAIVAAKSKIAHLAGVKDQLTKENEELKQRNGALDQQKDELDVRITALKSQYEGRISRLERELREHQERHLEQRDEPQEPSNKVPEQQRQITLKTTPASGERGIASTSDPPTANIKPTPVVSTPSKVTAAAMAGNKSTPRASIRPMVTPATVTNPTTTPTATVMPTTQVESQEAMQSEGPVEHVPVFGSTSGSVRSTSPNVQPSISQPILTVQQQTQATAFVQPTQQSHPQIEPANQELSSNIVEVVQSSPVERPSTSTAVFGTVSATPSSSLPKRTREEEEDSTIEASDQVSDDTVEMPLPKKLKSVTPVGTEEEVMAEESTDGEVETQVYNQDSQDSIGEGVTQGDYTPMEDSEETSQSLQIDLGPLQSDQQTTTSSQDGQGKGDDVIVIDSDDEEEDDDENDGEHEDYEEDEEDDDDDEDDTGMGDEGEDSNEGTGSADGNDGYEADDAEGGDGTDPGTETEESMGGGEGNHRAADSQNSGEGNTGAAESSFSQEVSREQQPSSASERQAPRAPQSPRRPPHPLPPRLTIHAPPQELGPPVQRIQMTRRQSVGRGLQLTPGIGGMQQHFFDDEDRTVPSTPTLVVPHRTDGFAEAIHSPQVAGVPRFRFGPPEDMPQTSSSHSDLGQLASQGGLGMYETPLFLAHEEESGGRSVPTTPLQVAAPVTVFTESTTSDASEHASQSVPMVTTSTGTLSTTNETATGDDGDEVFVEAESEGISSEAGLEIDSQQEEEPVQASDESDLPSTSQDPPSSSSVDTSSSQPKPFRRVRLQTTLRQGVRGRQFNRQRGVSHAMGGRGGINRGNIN
T2 sequence (O75340 whole entry): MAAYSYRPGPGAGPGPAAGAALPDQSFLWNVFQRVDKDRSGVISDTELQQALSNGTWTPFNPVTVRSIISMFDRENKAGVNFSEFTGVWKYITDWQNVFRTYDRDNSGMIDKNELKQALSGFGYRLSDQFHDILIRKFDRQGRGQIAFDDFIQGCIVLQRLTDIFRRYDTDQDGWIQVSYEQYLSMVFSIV
T1 sequence (Q16831 whole entry): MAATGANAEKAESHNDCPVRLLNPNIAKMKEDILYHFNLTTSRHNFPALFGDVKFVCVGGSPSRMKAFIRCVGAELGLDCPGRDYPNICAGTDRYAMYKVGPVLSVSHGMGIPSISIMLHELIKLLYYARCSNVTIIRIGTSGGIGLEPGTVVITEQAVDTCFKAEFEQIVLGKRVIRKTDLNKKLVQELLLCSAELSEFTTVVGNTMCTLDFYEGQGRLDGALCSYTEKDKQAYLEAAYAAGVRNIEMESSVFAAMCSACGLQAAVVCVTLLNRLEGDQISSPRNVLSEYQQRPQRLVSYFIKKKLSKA
T4 sequence (Q99623 whole entry): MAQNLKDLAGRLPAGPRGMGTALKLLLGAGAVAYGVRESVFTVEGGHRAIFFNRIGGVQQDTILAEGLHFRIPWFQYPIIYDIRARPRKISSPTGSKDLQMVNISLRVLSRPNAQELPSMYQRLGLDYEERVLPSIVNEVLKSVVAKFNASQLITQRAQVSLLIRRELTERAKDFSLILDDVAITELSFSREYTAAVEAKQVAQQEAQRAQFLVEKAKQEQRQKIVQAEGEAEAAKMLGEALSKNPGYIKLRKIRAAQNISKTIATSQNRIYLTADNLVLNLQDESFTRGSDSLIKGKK

Nc1nc2c(c(=O)[nH]1)N(C=O)C(CNc1ccc(C(=O)N[C@@H](CCC(=O)O)C(=O)O)cc1)CN2 (some centres unmarked) [LEU, leucovorin]
fold changes relative to vehicle control [1, 9]: 1.01
fold changes relative to vehicle control [2, 10]: 1.14
fold changes relative to vehicle control ([3]; protein ST13, HeLa): 0.98
fold changes relative to vehicle control ([4]; protein PHB2, HeLa): 0.85
fold changes relative to vehicle control ([5]; HeLa, captured protein TPR): 1.35
fold changes relative to vehicle control ([6]; HeLa, captured protein ECHS1): 0.89
fold changes relative to vehicle control ([7]; HeLa, protein MAP3K6): 0.99
fold changes relative to vehicle control ([8]; HeLa, protein MDH2): 1.06

Nc1nc2[nH]cc(CCc3ccc(C(=O)N[C@@H](CCC(=O)O)C(=O)O)cc3)c2c(=O)[nH]1 [PTX, pemetrexed]
fold changes relative to vehicle control [1]: 1.11
fold changes relative to vehicle control [2]: 1.06
fold changes relative to vehicle control [3]: 1.12
fold changes relative to vehicle control [4]: 0.86
fold changes relative to vehicle control [5]: 1.21
fold changes relative to vehicle control [6]: 0.98
fold changes relative to vehicle control [7]: 1.16
fold changes relative to vehicle control [8]: 1.11

CCCCCCOc1ccc(Cc2cnc(N)nc2N)cc1 [compound 1]
fold changes relative to vehicle control ([1]; HeLa, protein UPP1): 0.88
fold changes relative to vehicle control ([2]; HeLa, protein PDCD6): 1.03
fold changes relative to vehicle control [3, 11]: 1.44 fold
fold changes relative to vehicle control ([4]; HeLa, protein PHB2): 0.95
fold changes relative to vehicle control ([5]; protein TPR, HeLa): 1.19
fold changes relative to vehicle control ([6]; protein ECHS1, HeLa): 0.98
fold changes relative to vehicle control ([7]; HeLa, protein MAP3K6): 0.99
fold changes relative to vehicle control ([8]; protein MDH2, HeLa): 1.26

CCCCCCOc1cccc(Cc2cnc(N)nc2N)c1 [compound 2]
fold changes relative to vehicle control ([1]; HeLa, protein UPP1): 1.16
fold changes relative to vehicle control ([2]; HeLa, protein PDCD6): 0.92
fold changes relative to vehicle control [3, 11]: 2.63 fold
fold changes relative to vehicle control ([4]; HeLa, protein PHB2): 0.91
fold changes relative to vehicle control ([5]; protein TPR, HeLa): 1.44
fold changes relative to vehicle control ([6]; protein ECHS1, HeLa): 0.92
fold changes relative to vehicle control ([7]; HeLa, protein MAP3K6): 0.97
fold changes relative to vehicle control ([8]; protein MDH2, HeLa): 1.97

Nc1nc2cccc(-c3ccccc3)c2n1Cc1ccc(Cl)c(Cl)c1 [compound 3]
fold changes relative to vehicle control ([1]; HeLa, protein UPP1): 1.05
fold changes relative to vehicle control ([2]; HeLa, protein PDCD6): 1.07
fold changes relative to vehicle control [3, 11]: 1.09 fold
fold changes relative to vehicle control ([4]; HeLa, protein PHB2): 1.04
fold changes relative to vehicle control ([5]; protein TPR, HeLa): 1.2
fold changes relative to vehicle control ([6]; protein ECHS1, HeLa): 0.91
fold changes relative to vehicle control ([7]; HeLa, protein MAP3K6): 0.97
fold changes relative to vehicle control ([8]; protein MDH2, HeLa): 0.92

NCCOCCOCC(=O)Nc1nc2ncc(CNc3ccc(C(=O)NC(CCC(=O)O)C(=O)O)cc3)nc2c(=O)[nH]1 (centres unmarked) [compound 6]
fold changes relative to vehicle control [1, 9]: 0.44
fold changes relative to vehicle control [2, 10]: 0.98
fold changes relative to vehicle control ([3]; protein ST13, HeLa): 1.3
fold changes relative to vehicle control ([4]; protein PHB2, HeLa): 0.95
fold changes relative to vehicle control ([5]; HeLa, captured protein TPR): 1.51
fold changes relative to vehicle control ([6]; HeLa, captured protein ECHS1): 0.76
fold changes relative to vehicle control ([7]; HeLa, protein MAP3K6): 1.19
fold changes relative to vehicle control ([8]; HeLa, protein MDH2): 1.34

NCCCNc1ccc(C(=O)NC(CCC(=O)O)C(=O)O)cc1 (centres unmarked) [compound 7]
fold changes relative to vehicle control [1, 9]: 0.96
fold changes relative to vehicle control [2, 10]: 1.05
fold changes relative to vehicle control ([3]; protein ST13, HeLa): 1.04
fold changes relative to vehicle control ([4]; protein PHB2, HeLa): 1
fold changes relative to vehicle control ([5]; HeLa, captured protein TPR): 1.06
fold changes relative to vehicle control ([6]; HeLa, captured protein ECHS1): 0.91
fold changes relative to vehicle control ([7]; HeLa, protein MAP3K6): 1.16
fold changes relative to vehicle control ([8]; HeLa, protein MDH2): 0.96
